Experimental data taken from US20070049564A1 (Wyeth, priority 2005, published 2007).
Converted amounts (≈) assume the structure as drawn. Read-outs that look alike come from different tables or passages of the source.

Tests used:
E. coli GC 6465 = assay: MIC, broth microdilution; conditions: Escherichia coli, GC6465, E. coli GC 6465
E. coli GC 2203 = assay: MIC, broth microdilution; conditions: Escherichia coli, GC2203, E. coli GC 2203
S. pneumoniae+ GC 4465 = assay: MIC, broth microdilution; conditions: Streptococcus pneumoniae, S. pneumoniae+ GC 4465
S. aureus GC 6467 = assay: MIC, broth microdilution; conditions: Staphylococcus aureus, GC6467, S. aureus GC 6467
S. pneumoniae* GC 4465 = assay: MIC, broth microdilution; conditions: Streptococcus pneumoniae, S. pneumoniae* GC 4465
S. aureus GC 4536 = assay: MIC, broth microdilution; conditions: Staphylococcus aureus, GC4536, S. aureus GC 4536
S. aureus GC 6466 = assay: MIC, broth microdilution; conditions: Staphylococcus aureus, GC6466, S. aureus GC 6466
E. coli GC 2272 = assay: MIC, broth microdilution; conditions: Escherichia coli, GC2272, E. coli GC 2272
E. coli GC 2232 = assay: MIC, broth microdilution; conditions: Escherichia coli, GC2232, E. coli GC 2232
Description: Antimicrobial susceptibility testing. The in vitro activities of the antibiotics are determined by the broth microdilution method as recommended by the National Committee for Clinical Laboratory Standards (NCCLS) (1). Mueller-Hinton II broth (MHBII)(BBL Cockeysville, Md.) is the medium employed in the testing procedures. Microtiter plates containing serial dilutions of each antimicrobial agent are inoculated with each organism to yield the appropriate density (10^5 CFU/ml) in a 100 μl final volume. The plates are incubated for 18-22 hours at 35° C. in ambient air.
Representative compounds were first incubated in mouse serum for an hour prior to the in vitro testing against a panel of selected gram-positive and gram-negative bacteria strains. All compounds were also pre-incubated in water for an hour prior to testing as control. Representative compounds of Formula I were incubated in human serum prior to MIC determination.

E. coli GC 2234 = assay: MIC, broth microdilution; conditions: Escherichia coli, GC2234, E. coli GC 2234
S. epidermidis GC 4935 = assay: MIC, broth microdilution; conditions: Staphylococcus epidermidis, GC4935, S. epidermidis GC 4935
P. aeruginosa GC 2214 = assay: MIC, broth microdilution; conditions: Pseudomonas aeruginosa, GC2214, P. aeruginosa GC 2214
E. coli GC 2231 = assay: MIC, broth microdilution; conditions: Escherichia coli, GC2231, E. coli GC 2231
E. coli GC 4560 = assay: MIC, broth microdilution; conditions: Escherichia coli, GC4560, E. coli GC 4560
S. aureus GC 1131 = assay: MIC, broth microdilution; conditions: Staphylococcus aureus, GC1131, S. aureus GC 1131
E. faecalis GC 2242 = assay: MIC, broth microdilution; conditions: Enterococcus faecalis, GC2242, E. faecalis GC 2242
Staph. aureus Smith = assay: In vivo activity (oral, iv; ED50) against Staph. aureus Smith in mice
Description: Representative examples of compounds of Formula I were tested for the oral efficacy using S. aureus Smith in mice.

E. coli GC 4559 = assay: MIC, broth microdilution; conditions: Escherichia coli, GC4559, E. coli GC 4559
S. aureus GC 2216 = assay: MIC, broth microdilution; conditions: Staphylococcus aureus, GC2216, S. aureus GC 2216
Description: Antimicrobial susceptibility testing. The in vitro activities of the antibiotics are determined by the broth microdilution method as recommended by the National Committee for Clinical Laboratory Standards (NCCLS) (1). Mueller-Hinton II broth (MHBII)(BBL Cockeysville, Md.) is the medium employed in the testing procedures. Microtiter plates containing serial dilutions of each antimicrobial agent are inoculated with each organism to yield the appropriate density (10^5 CFU/ml) in a 100 μl final volume. The plates are incubated for 18-22 hours at 35° C. in ambient air. […] Standard Pharmacological Test Procedures
Presented in Tables I-XIII are representative compounds of Formula I which were evaluated against a panel of 40 selected gram-positive and gram-negative bacteria strains by pre-incubation in water, mouse serum or human serum. Representative compounds were first incubated in mouse serum for an hour prior to the in vitro testing against a panel of selected gram-positive and gram-negative bacteria strains. All compounds were also pre-incubated in water for an hour prior to testing as control. Representative compounds of Formula I were incubated in human serum prior to MIC determination.

E. faecalis GC 2267 = assay: MIC, broth microdilution; conditions: Enterococcus faecalis, GC2267, E. faecalis GC 2267

CCCCN(CC(=O)Nc1cc(N(C)C)c2c(c1O)C(=O)C1=C(O)[C@]3(O)C(=O)C(C(N)=O)=C(O)[C@@H](N(C)C)[C@@H]3C[C@@H]1C2)C(=O)OCOC(=O)c1ccc(F)cc1 [Example 4, ({[(2-{[(5aR,6aS,7S,10aS)-9-(aminocarbonyl)-4,7-bis(dimethylamino)-1,8,10a,11-tetrahydroxy-10,12-dioxo-5,5a,6,6a,7,10,10a,12-octahydrotetracen-2-yl]amino}-2-oxoethyl)(butyl)amino]carbonyl}oxy)methyl 4-fluorobenzoate]
MIC (E. coli GC 6465; Mouse Serum pre-incubation): 4 µg/mL (≈ 5.12 µM) | MIC (E. coli GC 6465; Water pre-incubation): > 64 µg/mL | MIC (E. coli GC 2203; Mouse Serum pre-incubation): 1 µg/mL (≈ 1.28 µM) | MIC (E. coli GC 2203; Water pre-incubation): 64 µg/mL (≈ 81.9 µM) | MIC (S. pneumoniae+ GC 4465; Mouse Serum pre-incubation): 2 µg/mL (≈ 2.56 µM) | MIC (S. pneumoniae+ GC 4465; Water pre-incubation): 4 µg/mL (≈ 5.12 µM) | MIC (S. aureus GC 6467; Mouse Serum pre-incubation): 2 µg/mL (≈ 2.56 µM) | MIC (S. aureus GC 6467; Water pre-incubation): 8 µg/mL (≈ 10.2 µM) | MIC (S. pneumoniae* GC 4465; Mouse Serum pre-incubation): < 0.06 µg/mL | MIC (S. pneumoniae* GC 4465; Water pre-incubation): 0.12 µg/mL (≈ 0.153 µM) | MIC (S. aureus GC 4536; Mouse Serum pre-incubation): 1 µg/mL (≈ 1.28 µM) | MIC (S. aureus GC 4536; Water pre-incubation): 4 µg/mL (≈ 5.12 µM) | MIC (S. aureus GC 6466; Mouse Serum pre-incubation): 0.5 µg/mL (≈ 0.64 µM) | MIC (S. aureus GC 6466; Water pre-incubation): 2 µg/mL (≈ 2.56 µM) | MIC (E. coli GC 2272; Mouse Serum pre-incubation): 1 µg/mL (≈ 1.28 µM) | MIC (E. coli GC 2272; Water pre-incubation): 64 µg/mL (≈ 81.9 µM) | MIC (E. coli GC 2232; Mouse Serum pre-incubation): 1 µg/mL (≈ 1.28 µM) | MIC (E. coli GC 2232; Water pre-incubation): 64 µg/mL (≈ 81.9 µM) | MIC (E. coli GC 2234; Mouse Serum pre-incubation): 1 µg/mL (≈ 1.28 µM) | MIC (E. coli GC 2234; Water pre-incubation): 64 µg/mL (≈ 81.9 µM) | MIC (S. epidermidis GC 4935; Mouse Serum pre-incubation): 2 µg/mL (≈ 2.56 µM) | MIC (S. epidermidis GC 4935; Water pre-incubation): 4 µg/mL (≈ 5.12 µM) | MIC (P. aeruginosa GC 2214; Mouse Serum pre-incubation): 32 µg/mL (≈ 40.9 µM) | MIC (P. aeruginosa GC 2214; Water pre-incubation): > 64 µg/mL | MIC (E. coli GC 2231; Mouse Serum pre-incubation): 1 µg/mL (≈ 1.28 µM) | MIC (E. coli GC 2231; Water pre-incubation): 64 µg/mL (≈ 81.9 µM) | MIC (E. coli GC 4560; Mouse Serum pre-incubation): 0.25 µg/mL (≈ 0.32 µM) | MIC (E. coli GC 4560; Water pre-incubation): 8 µg/mL (≈ 10.2 µM) | MIC (S. aureus GC 1131; Mouse Serum pre-incubation): 1 µg/mL (≈ 1.28 µM) | MIC (S. aureus GC 1131; Water pre-incubation): 4 µg/mL (≈ 5.12 µM) | MIC (E. faecalis GC 2242; Mouse Serum pre-incubation): 1 µg/mL (≈ 1.28 µM) | MIC (E. faecalis GC 2242; Water pre-incubation): 4 µg/mL (≈ 5.12 µM) | ED50 (Staph. aureus Smith; Staphylococcus aureus, in Mus musculus, po, read-out: ED50 Staph Smith SOD): 11.6 mg/kg | ED50 (Staph. aureus Smith; iv, read-out: ED50 Staph Smith SIV): 0.39 mg/kg | MIC (E. coli GC 4559; Mouse Serum pre-incubation): 2 µg/mL (≈ 2.56 µM) | MIC (E. coli GC 4559; Water pre-incubation): > 64 µg/mL | MIC (S. aureus GC 2216; Mouse Serum pre-incubation): 0.5 µg/mL (≈ 0.64 µM) | MIC (S. aureus GC 2216; Water pre-incubation): 4 µg/mL (≈ 5.12 µM) | MIC (E. faecalis GC 2267; Mouse Serum pre-incubation): 1 µg/mL (≈ 1.28 µM) | MIC (E. faecalis GC 2267; Water pre-incubation): 8 µg/mL (≈ 10.2 µM)
